Laboratory results reported in patent US12673945B2, “3-((8-((1H-pyrazol-4-yl)amino)imidazo[1,2-a]pyridin-3-yl)ethinyl)-n-phenylbenzamide derivative, method for preparing same, and pharmaceutical composition containing same as active ingredient for prevention or treatment of cancer” (DAEGU-GYEONGBUK MEDICAL INNOVATION FOUNDATION, priority 2020, dated 2026).

Assays:
Type in all cases: cell-based
[1] = test system: T315I-KOPM28 cells; experiment: human CML cell proliferation inhibition; conditions: 72 hours, Cell Counting Kit-8
How it was run: (§1)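 Read-out: CCK-8, A450 after 2 h, expressed as % of vehicle-treated cells; GI50 fitted from 9-point curves. Compound exposure 72 h at 37 °C, final 0–10 μM, 5-fold dilutions. Bcr-Abl lines TCCS/KOPM28; T315I-Bcr-Abl lines T315I-TCCS/T315I-KOPM28.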

[2] = test system: TCCS cells; experiment: human CML cell proliferation inhibition; conditions: 72 hours, Cell Counting Kit-8
How it was run: as §1

[3] = test system: KOPM28 cells; experiment: human CML cell proliferation inhibition; conditions: 72 hours, Cell Counting Kit-8
How it was run: as §1

[4] = test system: T315I-TCCS cells; experiment: human CML cell proliferation inhibition; conditions: 72 hours, Cell Counting Kit-8
How it was run: as §1

[5] = test system: Parental (Ba/F3); experiment: Ba/F3 cell proliferation inhibition; conditions: BaF3; 72 hours, Cell Counting Kit-8
How it was run: (§2)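 Parental and T315I-Bcr-Abl Ba/F3 cells, 1×10^4 per well, exposed 72 h at 37 °C to nine 3-fold dilutions, final 0 to 10 μM. Viability by CCK-8 after 2 h, absorbance 450 nm; GI50 fitted from percent of vehicle-treated cells.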

[6] = test system: T315I-Bcr-Abl (Ba/F3); experiment: Ba/F3 cell proliferation inhibition; conditions: BaF3; 72 hours, Cell Counting Kit-8
How it was run: as §2

Structure (SMILES) | GI50 [6] | GI50 [1] | GI50 [2] | GI50 [3] | GI50 [4] | GI50 [5]
Cc1cn(-c2cc(NC(=O)c3cc(C#Cc4cnc5c(Nc6cnn(C)c6)cccn45)c(C)cc3Cl)cc(C(C)(C)C#N)c2)cn1 [Example 13, 2-chloro-N-(3-(2-cyanopropan-2-yl)-5-(4-methyl-1H-imidazol-1-yl)phenyl)-4-methyl-5-((8-((1-methyl-1H-pyrazol-4-yl)amino)imidazo[1,2-a]pyridin-3-yl)ethynyl)benzamide] | < 50 nM | 100 nM | < 10 nM | < 10 nM | < 10 nM | > 5000 nM
Cc1cc(F)c(C(=O)Nc2ccc(CN3CCC(N(C)C)C3)c(C(F)(F)F)c2)cc1C#Cc1cnc2c(Nc3cn[nH]c3)cccn12 (stereo not drawn) [Example 110, 5-((8-((1H-pyrazol-4-yl)amino)imidazo[1,2-a]pyridin-3-yl)ethynyl)-N-(4-((3-(dimethylamino)pyrrolidin-1-yl)methyl)-3-(trifluoromethyl)phenyl)-2-fluoro-4-methylbenzamide] | < 50 nM | 100 nM | < 10 nM | < 10 nM | 100 nM | 500 to 5000 nM
Cc1cn(-c2cc(NC(=O)c3cc(C#Cc4cnc5c(Nc6cnn(C)c6)cccn45)c(C)cc3Cl)cc(C(F)(F)F)c2)cn1 [Example 14, 2-chloro-4-methyl-N-(3-(4-methyl-1H-imidazol-1-yl)-5-(trifluoromethyl)phenyl)-5-((8-((1-methyl-1H-pyrazol-4-yl)amino)imidazo[1,2-a]pyridin-3-yl)ethynyl)benzamide] | < 50 nM | 100 nM | < 10 nM | < 10 nM | 100 nM | > 5000 nM
Cc1cc(F)c(C(=O)Nc2cc(CN3CC(OC(C)C)C3)cc(C(F)(F)F)c2)cc1C#Cc1cnc2c(Nc3cnn(C)c3)cccn12 [Example 72, 2-fluoro-N-(3-((3-isopropoxyazetidin-1-yl)methyl)-5-(trifluoromethyl)phenyl)-4-methyl-5-((8-((1-methyl-1H-pyrazol-4-yl)amino)imidazo[1,2-a]pyridin-3-yl)ethynyl)benzamide] | 50 to 500 nM | > 100 nM | < 10 nM | < 10 nM | > 100 nM | > 5000 nM
Cc1cc(F)c(C(=O)Nc2ccc(Cn3ccnc3)c(C(F)(F)F)c2)cc1C#Cc1cnc2c(Nc3cnn(C)c3)cccn12 [Example 63, N-(4-((1H-imidazol-1-yl)methyl)-3-(trifluoromethyl)phenyl)-2-fluoro-4-methyl-5-((8-((1-methyl-1H-pyrazol-4-yl)amino)imidazo[1,2-a]pyridin-3-yl)ethynyl)benzamide] | 500 to 5000 nM | > 100 nM | < 10 nM | < 10 nM | > 100 nM | > 5000 nM
Cc1cc(F)c(C(=O)Nc2cc(-c3cccnc3)cc(C(C)(C)C#N)c2)cc1C#Cc1cnc2c(Nc3cn[nH]c3)cccn12 [Example 79, 5-((8-((1H-pyrazol-4-yl)amino)imidazo[1,2-a]pyridin-3-yl)ethynyl)-N-(3-(2-cyanopropan-2-yl)-5-(pyridin-3-yl)phenyl)-2-fluoro-4-methylbenzamide] | 50 to 500 nM | > 100 nM | < 10 nM | < 10 nM | 100 nM | > 5000 nM
Cc1cc(F)c(C(=O)Nc2ccc(CN3CCCN(C)CC3)c(C(C)(C)C#N)c2)cc1C#Cc1cnc2c(Nc3cnn(C)c3)cccn12 [Example 42, N-(3-(2-cyanopropan-2-yl)-4-((4-methyl-1,4-diazepan-1-yl)methyl)phenyl)-2-fluoro-4-methyl-5-((8-((1-methyl-1H-pyrazol-4-yl)amino)imidazo[1,2-a]pyridin-3-yl)ethynyl)benzamide] | 50 to 500 nM | > 100 nM | < 10 nM | < 10 nM | 100 nM | 500 to 5000 nM
Cc1cc(F)c(C(=O)Nc2cc(Oc3ccncc3)cc(C(F)(F)F)c2)cc1C#Cc1cnc2c(Nc3cnn(C)c3)cccn12 [Example 7, 2-fluoro-4-methyl-5-((8-((1-methyl-1H-pyrazol-4-yl)amino)imidazo[1,2-a]pyridin-3-yl)ethynyl)-N-(3-(pyridin-4-yloxy)-5-(trifluoromethyl)phenyl)benzamide] | < 50 nM | < 10 nM | < 10 nM | < 10 nM | < 10 nM | > 5000 nM
Cc1cc(F)c(C(=O)Nc2cc(N3CCN(C)C(=O)C3)cc(C(C)(C)C#N)c2)cc1C#Cc1cnc2c(Nc3cn[nH]c3)cccn12 [Example 82, 5-((8-((1H-pyrazol-4-yl)amino)imidazo[1,2-a]pyridin-3-yl)ethynyl)-N-(3-(2-cyanopropan-2-yl)-5-(4-methyl-3-oxopiperazin-1-yl)phenyl)-2-fluoro-4-methylbenzamide] | 50 to 500 nM | > 100 nM | < 10 nM | < 10 nM | 100 nM | 500 to 5000 nM
Cc1ccc(C(=O)Nc2cc(Oc3ccncc3)cc(C(F)(F)F)c2)c(F)c1C#Cc1cnc2c(Nc3cnn(C)c3)cccn12 [Example 9, 2-fluoro-4-methyl-3-((8-((1-methyl-1H-pyrazol-4-yl)amino)imidazo[1,2-a]pyridin-3-yl)ethynyl)-N-(3-(pyridin-4-yloxy)-5-(trifluoromethyl)phenyl)benzamide] | < 50 nM | 100 nM | < 10 nM | < 10 nM | 100 nM | > 5000 nM

The next lines start with results.

GI50 [6] | Structure (SMILES) | GI50 [1] | GI50 [2] | GI50 [3] | GI50 [4] | GI50 [5]
< 50 nM | Cc1cc(F)c(C(=O)Nc2cc(Cn3cncn3)cc(C(F)(F)F)c2)cc1C#Cc1cnc2c(Nc3cnn(C)c3)cccn12 [Example 74, N-(3-((1H-1,2,4-triazol-1-yl)methyl)-5-(trifluoromethyl)phenyl)-2-fluoro-4-methyl-5-((8-((1-methyl-1H-pyrazol-4-yl)amino)imidazo[1,2-a]pyridin-3-yl)ethynyl)benzamide] | 100 nM | < 10 nM | < 10 nM | 100 nM | > 5000 nM
< 50 nM | Cc1cc(F)c(C(=O)Nc2cc(Oc3ccncc3)cc(C(C)(C)C#N)c2)cc1C#Cc1cnc2c(Nc3cn[nH]c3)cccn12 [Example 83, 5-((8-((1H-pyrazol-4-yl)amino)imidazo[1,2-a]pyridin-3-yl)ethynyl)-N-(3-(2-cyanopropan-2-yl)-5-(pyridin-4-yloxy)phenyl)-2-fluoro-4-methylbenzamide] | 100 nM | < 10 nM | < 10 nM | 100 nM | 500 to 5000 nM
50 to 500 nM | Cc1cc(F)c(C(=O)Nc2cc(N3CCN(C)CC3)cc(C(F)(F)F)c2)cc1C#Cc1cnc2c(Nc3cnn(C)c3)cccn12 [Example 47, 2-fluoro-4-methyl-5-((8-((1-methyl-1H-pyrazol-4-yl)amino)imidazo[1,2-a]pyridin-3-yl)ethynyl)-N-(3-(4-methylpiperazin-1-yl)-5-(trifluoromethyl)phenyl)benzamide] | 100 nM | < 10 nM | < 10 nM | 100 nM | 500 to 5000 nM
< 50 nM | Cc1cc(F)c(C(=O)Nc2cc(Cn3cncn3)cc(C(C)(C)C#N)c2)cc1C#Cc1cnc2c(Nc3cn[nH]c3)cccn12 [Example 89, N-(3-((1H-1,2,4-triazol-1-yl)methyl)-5-(2-cyanopropan-2-yl)phenyl)-5-((8-((1H-pyrazol-4-yl)amino)imidazo[1,2-a]pyridin-3-yl)ethynyl)-2-fluoro-4-methylbenzamide] | 100 nM | < 10 nM | < 10 nM | 100 nM | > 5000 nM
50 to 500 nM | Cc1cc(F)c(C(=O)Nc2cc(N3CCN(C)CC3)cc(C(C)(C)C#N)c2)cc1C#Cc1cnc2c(Nc3cn[nH]c3)cccn12 [Example 80, 5-((8-((1H-pyrazol-4-yl)amino)imidazo[1,2-a]pyridin-3-yl)ethynyl)-N-(3-(2-cyanopropan-2-yl)-5-(4-methylpiperazin-1-yl)phenyl)-2-fluoro-4-methylbenzamide] | > 100 nM | < 10 nM | < 10 nM | 100 nM | > 5000 nM
50 to 500 nM | Cc1cc(F)c(C(=O)Nc2cc(-c3cnn(C)c3)cc(C(F)(F)F)c2)cc1C#Cc1cnc2c(Nc3cnn(C)c3)cccn12 [Example 54, 2-fluoro-4-methyl-N-(3-(1-methyl-1H-pyrazol-4-yl)-5-(trifluoromethyl)phenyl)-5-((8-((1-methyl-1H-pyrazol-4-yl)amino)imidazo[1,2-a]pyridin-3-yl)ethynyl)benzamide] | > 100 nM | < 10 nM | 100 nM | 100 nM | > 5000 nM
< 50 nM | Cc1cc(F)c(C(=O)Nc2ccc(CN3CCN(C)C(=O)C3)c(C(F)(F)F)c2)cc1C#Cc1cnc2c(Nc3cnn(C)c3)cccn12 [Example 58, 2-fluoro-4-methyl-5-((8-((1-methyl-1H-pyrazol-4-yl)amino)imidazo[1,2-a]pyridin-3-yl)ethynyl)-N-(4-((4-methyl-3-oxopiperazin-1-yl)methyl)-3-(trifluoromethyl)phenyl)benzamide] | 100 nM | < 10 nM | < 10 nM | 100 nM | > 5000 nM
